Data on 3 compounds can be found in patent publication US11904051B2, “Shear stress sensitive liposomes” (Universität Basel, priority 2018, dated 2024).

Read-outs that look alike come from different tables or passages of the source.

Series [1] in a line: Dynamic light scattering of liposome formulations before and after SANS heating cycles. The class given is physicochemical. The conditions noted are these: for PDI, After heating / Size (hydrodynamic), After heating: after the SANS experiments (n = 3); for Size (hydrodynamic), After heating: heating to 42° C. and back, eight months after; for PDI, Before heating / Size (hydrodynamic), Before heating: before the SANS experiments (n = 5); for Size (hydrodynamic), Before heating: room temperature, D2O; for DLS larger population size: bimodal size distribution. Here is the method:
A library of artificial phospholipids was synthesised. Table 5 summarises the characterisation of the liposomal formulations concerning hydrodynamic size and polydispersity, before and after the temperature-dependent SANS measurements. The size of the DPPC and Pad-PC-Pad liposomes was (120±2) nm with a polydispersity index between 0.01 and 0.20. […] Pad-Pad-PC and Sur-PC-Sur liposomes were 400 to 1,500 nm in size with a polydispersity index of 0.57.
DLS measurements were carried out on a DelsaMax PRO (Beckman Coulter, USA) at room temperature and at a lipid concentration of 0.3 mg/mL in D2O. The data were averaged among five independent measurements before heating cycles and three measurements eight months after applying heating cycles. Data were treated with the cumulant analysis method.

The nature of series [2]: Small-angle neutron scattering (SANS) of liposomes as a function of temperature. Format: physicochemical. An excerpt:
In order to determine the structural parameters, including the bilayer thickness of the selected liposomal formulations, a suitable model for data fitting has to be identified. […] The structure factor was fitted using the sticky hard sphere model (Baxter et al., The Journal of Chemical Physics 1968, 49 (6), 2770-2774; Mays, Langmuir 1989, 5, 422-428). In order to adjust the form factor to the overall shape of the liposomes, an ellipsoidal shell model with a homogeneous cross-section (Guinier, Annales de Physique, 1939; pp 161-237) was applied. The elliptical shell model is defined by three orthogonal axes with lengths a=R, b=R and c=εR, along with eccentricity ε>0, (ε<1: oblate, ε=1: spherical, ε>1: prolate). The model also accounts for variations in bilayer thickness and liposome size. As the scattering data of the Pad-PC-Pad liposomes at the temperature of 35° C. could not be approximated satisfactorily by means of the ellipsoidal shell, the inventors included disks with a homogeneous cross-section—an approach motivated by the cryo-TEM results. Together with the experimental data of the Pad-PC-Pad liposomes at three selected temperatures, the obtained fits are represented in FIG. 23.
The inventors recognised that the inhomogeneity of the liposomal formulations, except for Pad-PC-Pad, concerning the shape and size of the artificial lipids in this study only allows for the reasonable fitting of the q-range, which corresponds to bilayer thickness. For this purpose, the inventors applied an extended Guinier law (Hjelm et al., The Journal of Physical Chemistry B 2000, 104 (2), 197-211; Fratzl, Journal of Statistical Physics 1994, 77 (1-2), 125-143), which yields the thickness of the bilayer. To account for possible multi-lamellarity, the inventors included a para-crystalline stacking model (Schwartz et al., Biophysical journal 1975, 15 (12), 1201-1233; FruÈhwirth et al., Journal of Applied Crystallography 2004, 37 (5), 703-710) as a structure factor.
SANS measurements were performed at the SANS-I beamline at the Swiss Spallation Neutron Source SINQ facility (Paul Scherrer Institute, Villigen, Switzerland). The samples were loaded into 2 mm-path length, boron-free quartz glass cells and mounted in a temperature-controlled holder. This system allows for controlling the temperature of the specimen with an accuracy better than 1 K. The liposomal suspensions were measured between 22 and 42° C. in 3 to 4 K steps. Subsequently, the suspensions were cooled down to room temperature (22° C.) and measured again. Three detector distances, i.e. 1.6, 6.0 and 18.0 m, were used to collect data over the range of scattering vectors 0.01 nm^−1<q<10 nm^−1 at the neutron wavelengths (A) […]. Data were collected with a two-dimensional ^3He-detector with an array of 128×128 pixels and reduced to one-dimensional I(q) scattering curves, thus radially averaging the two-dimensional images. The data were corrected for transmission, background scattering and detector efficiency according to a standard procedure using the BerSANS software package (Keiderling, Applied Physics A 2002, 74 (1), s1455-s1457; Strunz et al., Journal of Applied Crystallography 2000, 33 (3 Part 1), 829-833).
The SANS data were analysed using SASfit software (Breßler et al., Journal of Applied Crystallography 2015, 48 (5), 1587-1598) and corresponding models. A Pad-PC-Pad sample was fitted over the entire measured q-range, whereas we restricted the fit for the other samples to the q-range, which corresponds to lipid bilayer thickness. For Pad-PC-Pad, the inventors used an ellipsoidal shell model with a homogeneous cross-section (Guinier, Annales de Physique, 1939; pp 161-237) and size distributions in terms of both thickness and radius. […]

The conditions of series [3]: reported previously, cited from earlier work.
The nature of series [4]: Release experiments with 5(6)-carboxyfluorescein-loaded large unilamellar vesicles (LUVET100), spontaneous and vortex-triggered. Format: physicochemical. The text has this:
FIG. 8 Release experiments using 5(6)-carboxyfluorescein-loaded large unilamellar vesicles comprising 1,3-diheptadecanamidopropan-2-yl (2-(trimethylammonio) ethyl) phosphate (4) obtained via extrusion through a 100 nm track-edged filter membrane (LUVET100). Triggered release was induced by shaking the samples for a specific amount of time on a vortex-shaker.
Previously the inventors reported the 5(6)-carboxyfluorescein release from vesicles containing 1,3-palmitoylamido-1,3-deoxy-sn-glycero-2-phosphatidylcholine (2) (Holme et al., Nat. Nanotechnol. 2012, 7, 536-543). […] Increasing the Tm promises improved release properties. […] This leads to a lower leakage of the vesicles at 22° C. (room temperature) as well as 37° C. (average human body temperature) (FIG. 8). A prolongation if the acyl chain to the artificial C18 phospholipid 1,3-stearoylamido-1,3-deoxy-sn-glycero-2-phosphatidylcholine leads to an increased Tm of 52° C., but this phospholipid forms almost no liposomes anymore.
Each sample was treated with Triton X-100 to induce a full release of 5(6)-carboxy fluorescein.
Large unilamellar vesicles with a diameter of 100 nm (LUVET100) of the 1,3-diheptadecanamidopropan-2-yl (2-(trimethylammonio) ethyl) phosphate (4) were prepared following the extrusion protocol: in a 25 ml round bottom flask, 10 mg of the lipid was dissolved in CH2Cl2. After evaporation of the organic solvent, the film was further dried under high vacuum (40 mbar) overnight. Then the film was hydrated with the internal buffer for 30 min (1 ml, 50 mM 5(6)-carboxyfluorescein, 10 mM HEPES buffer (AppliChem), 10 mM NaCl dissolved in pure water, pH 7.4). Now at least 5 freeze-thaw cycles (liquid N2 to 65° C.) were carried out before the suspension was extruded 11 times using a Mini Extruder (Avanti Polar Lipids, USA) using track-edged filters with a mesh size of 100 nm (Whatman, USA). The external buffer was then exchanged on a size exclusion column (1.5×20 cm Sephadex G-50 column) in external buffer (107 mM NaCl dissolved in ultrapure water, 10 mM HEPES, pH 7.4).

The nature of series [5]: Differential scanning calorimetry, main phase transition of vesicle membranes. The class given is physicochemical. The settings on record: main phase transition temperature of liposome membrane. The text has this:
Interdigitation of membrane leaflets also influences the membranes main-phase transition temperature. […] Also, the value for the bilayer main-phase transition temperature is 11.5 K higher than the calculated critical temperature from the monolayer experiments, where no interdigitation is possible.
In general terms: In DSC, transitions show as peaks or steps in heat flow.

[6] abbreviates: 22 ° C. (after cooling down to room temperature).

In the case of `CCCCCCCCCCCCCCCC(=O)OCC(COC(=O)CCCCCCCCCCCCCCC)OP(=O)([O-])OCC[N+](C)(C)C` [Pes-PC-Pes], in series [1], the “DLS most probable / dominant or smaller population size” value is “about 100 nm”. In series [1], the “PDI, After heating” value is given as 0.92 ± 0.08. The “Size (hydrodynamic), After heating” value in series [1] worked out at 3100 ± 200 nm. Moreover, in series [1], the “PDI, Before heating” value was found to be 0.57 ± 0.01. For the same compound, the “Size (hydrodynamic), Before heating” value in series [1] (listed as Pes-PC-Pes (3)) was determined as 170 ± 20 nm. In series [1], the “DLS larger population size” value is on record as about 1 μm. Besides, the most probable bilayer thickness in series [2] (22 ° C.) was determined as 3.9 nm; in series [2] (setting [6]) it was 4.82 nm; in series [2] (25 ° C.), 4.17 nm; in series [2] (28 ° C.), 4.46 nm; in series [2] (32 ° C.), 4.42 nm; in series [2] (35 ° C.) it was 4.6 nm. Besides, the most probable bilayer thickness in series [2] (39 ° C.) came out at 4.68 nm; in series [2] (42 ° C.) it was 4.58 nm. The “increase in bilayer thickness at phase transition” value in series [2] (present study) was 18%. In series [2] (temperature cycle to 42° C. including cooling to room temperature), the “increase in bilayer thickness after the heating cycle” value was found to be 24%. Also, the “Tm, main phase transition temperature” value in series [3] is 39 °C.
`CCCCCCCCCCCCCCCC(=O)NC[C@H](COP(=O)([O-])OCC[N+](C)(C)C)NC(=O)CCCCCCCCCCCCCCC` [Pad-Pad-PC]: the “DLS most probable / dominant or smaller population size” value in series [1] was “about 150 nm”. The figures for the “PDI, Before heating” value in series [1] and in series [1] (listed as Pad-Pad-PC (2)) were 0.57 and 0.57 ± 0.01, respectively. Moreover, the “Size (hydrodynamic), Before heating” value in series [1] (listed as Pad-Pad-PC (2)) amounted to 1500 ± 30 nm. Further, the “DLS larger population size” value in series [1] is reported as about 3 μm. Further, the most probable bilayer thickness in series [2] (22 ° C.) came to 5.57 nm; in series [2] (setting [6]), 5.67 nm; in series [2] (25 ° C.), 5.55 nm; in series [2] (28 ° C.), 5.55 nm; in series [2] (32 ° C.) it was 5.52 nm; in series [2] (35 ° C.), 5.54 nm. Moreover, the most probable bilayer thickness was 5.58 nm in series [2] (39 ° C.) and 5.57 nm in series [2] (42 ° C.). For the same compound, the “Tm, main phase transition temperature” value is 46 °C in series [3] and 40-47 °C in series [3] (listed as Pad-Pad-PC (2)).
In the case of `CCCCCCCCCCCCCCCCCC(=O)NCC(CNC(=O)CCCCCCCCCCCCCCCCC)OP(=O)([O-])OCC[N+](C)(C)C` [Sad-PC-Sad, 1,3-distearamidopropan-2-phosphocholine], the “Release at 37° C. after 2 h” value in series [4] (37° C., 2 h) was 9.1%. For the same compound, in series [4] (mechanically induced release, 22° C. (RT), 60 s vortexing), the “Release at RT after 60 s vortex” value was 8.32%. In addition, the “Release 37° C. after 60 s vortex” value in series [4] (mechanically induced release, 37° C., 60 s vortexing) is 40.2%. Also, the “Release at RT after 6 days” value in series [4] (spontaneous release, RT, (6 days)) is listed as 8.4%. Further, the Tm in series [5] was 52 °C. In addition, the “DLS most probable / dominant or smaller population size” value in series [1] was 160 nm. Further, the “PDI, After heating” value in series [1] stood at 0.20 ± 0.02. Further, the “Size (hydrodynamic), After heating” value in series [1] was 220 ± 10 nm. The “PDI, Before heating” value in series [1] is reported as 0.23 ± 0.01. For the same compound, in series [1] (listed as Sad-PC-Sad (6)), the “Size (hydrodynamic), Before heating” value stood at 160 ± 3 nm. Moreover, the bilayer thickness variations in series [2] (22 to 42° C.) is on record as at most 10%. Also, the most probable bilayer thickness in series [2] (22 ° C.) worked out at 3.15 nm; in series [2] (setting [6]), 3.01 nm; in series [2] (25 ° C.), 3.51 nm; in series [2] (28 ° C.) it was 3.51 nm; in series [2] (32 ° C.) it was 3.49 nm; in series [2] (35 ° C.) it was 3.46 nm. Moreover, the values for the most probable bilayer thickness in series [2] (39 ° C.) and in series [2] (42 ° C.) were 3.38 nm and 3.33 nm, respectively. In addition, in series [3], the “Tm, main phase transition temperature” value was 52 °C.
